System: 2°-branch mesenteric artery
Assay: Mesenteric artery vascular reactivity (pressurized myography)
Format: cell-based, mice
Method: Mesenteric Artery Vascular Reactivity: Secondary branches of mesenteric artery were dissected and placed in chilled oxygenated (21% O2, 5% CO2, and 74% N2) Kreb's buffer. A segment (˜1 mm long) of artery was transferred to a vessel chamber (DMT), cannulated with glass micropipettes and secured with silk ligatures. The artery was slowly pressurized to 40 mmHg without flow. After 30 min equilibration, vessel viability was tested by constriction response to 100 mM KCl. Vascular responses to PE (10-9-10-5 mol/L), AVP (10-12-10-7 mol/L), and ET-1 (10-11-10-8 mol/L) were then assessed. The artery was then superfused with calcium-free Krebs buffer containing 10-5 mol/L sodium nitroprusside and 2 mmol/L EGTA to maximally dilate the vessel. Internal and external diameters were measured at 75 mm Hg. Wall thickness, media/lumen ratio and cross sectional area (CSA) were calculated as previously described by Neves, et al. (62).
Statistics: Data were analyzed by ANOVA with repeated measures as appropriate. Post-hoc analyses were performed using Bonferroni multiple-comparisons procedures. EC50 and maximum response calculations were performed by fitting individual dose-response data sets to a four-parameter logistic function (Hillslope method); y=min+([…])/(1+(x/EC50)^Hillslope). All mRNA fold changes were calculated using the Livak method (54). All analytical comparisons were performed using SigmaStat/SigmaPlot (Systat). All data are presented as mean±sem.

## NC(=O)CC[C@@H]1NC(=O)[C@H](Cc2ccccc2)NC(=O)[C@H](Cc2ccc(O)cc2)NC(=O)[C@@H](N)CSSC[C@@H](C(=O)N2CCC[C@H]2C(=O)N[C@@H](CCCN=C(N)N)C(=O)NCC(N)=O)NC(=O)[C@H](CC(N)=O)NC1=O [Arginine vasopressin]
Male Control mice
  Maximum Response: 52.5 ± 3.2%
Male sRA mice
  Maximum Response: 17.3 ± 6.5 %
